Assay results: the supplement of paper PMC10307832

Tests used:
Assay in all cases: relative viability (nuclei count vs DMSO), 5 days (fraction); higher = more cells survive
NCI-H1299 = tested on: NCI-H1299
How it was run: (§1)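 The day after seeding in 1536-well plates, lung cancer cell lines were treated by pin tool with a single drug, or with a fixed anchor-drug dose together with five library-drug doses (not always all listed) in √10 steps. After 5 days, a combined fix-and-stain solution (final 0.05% Triton X-100, 1% formaldehyde, 1 ug/ml Hoechst) was added. Nuclei counted on 4× images gave relative viability as treated counts over vehicle counts, reported as the median of duplicate plates.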

UMC-11 = tested on: UMC-11
How it was run: as §1

NCI-H1395 = tested on: NCI-H1395
How it was run: as §1

HCC-44 = tested on: HCC-44
How it was run: as §1

IA-LM = tested on: IA-LM
How it was run: as §1

EKVX = tested on: EKVX
How it was run: as §1

NCI-H1755 = tested on: NCI-H1755
How it was run: as §1

EBC-1 = tested on: EBC-1
How it was run: as §1

NCI-H1703 = tested on: NCI-H1703
How it was run: as §1

Calu-6 = tested on: Calu-6
How it was run: as §1

LCLC-103H = tested on: LCLC-103H
How it was run: as §1

A549 = tested on: A549
How it was run: as §1

HCC-15 = tested on: HCC-15
How it was run: as §1

CCN(CC)CCCCNc1ncc2cc(-c3cc(OC)cc(OC)c3)c(NC(=O)NC(C)(C)C)nc2n1 + Cc1nc(NC(=O)N2CCC[C@H]2C(N)=O)sc1-c1ccnc(C(C)(C)C(F)(F)F)c1 [Alpelisib] (partner 2 µM)
relative viability (NCI-H1299; first compound 0.01 µM): 1.12
relative viability (NCI-H1299; first compound 0.03162 µM): 1.12
relative viability (NCI-H1299; first compound 0.1 µM): 1.08
relative viability (NCI-H1299; first compound 0.3162 µM): 1.04
relative viability (NCI-H1299; first compound 1 µM): 1.04
relative viability (UMC-11; first compound 0.01 µM): 1.08
relative viability (UMC-11; first compound 0.03162 µM): 0.921
relative viability (UMC-11; first compound 0.1 µM): 1.02
relative viability (UMC-11; first compound 0.3162 µM): 1.17
relative viability (UMC-11; first compound 1 µM): 0.88
relative viability (NCI-H1395; first compound 0.03162 µM): 1.19
relative viability (NCI-H1395; first compound 0.1 µM): 1.07
relative viability (NCI-H1395; first compound 0.3162 µM): 0.802
relative viability (NCI-H1395; first compound 1 µM): 0.637
relative viability (HCC-44; first compound 0.01 µM): 0.93
relative viability (HCC-44; first compound 0.03162 µM): 0.9
relative viability (HCC-44; first compound 0.1 µM): 1.12
relative viability (HCC-44; first compound 0.3162 µM): 0.87
relative viability (HCC-44; first compound 1 µM): 0.772
relative viability (IA-LM; first compound 0.01 µM): 0.62
relative viability (IA-LM; first compound 0.03162 µM): 0.659
relative viability (IA-LM; first compound 0.1 µM): 0.672
relative viability (IA-LM; first compound 0.3162 µM): 0.836
relative viability (IA-LM; first compound 1 µM): 0.597
relative viability (EKVX; first compound 0.01 µM): 0.818
relative viability (EKVX; first compound 0.03162 µM): 0.898
relative viability (EKVX; first compound 0.1 µM): 0.875
relative viability (EKVX; first compound 0.3162 µM): 1.04
relative viability (EKVX; first compound 1 µM): 0.893
relative viability (NCI-H1755; first compound 0.01 µM): 0.983
relative viability (NCI-H1755; first compound 0.03162 µM): 0.942
relative viability (NCI-H1755; first compound 0.1 µM): 0.983
relative viability (NCI-H1755; first compound 0.3162 µM): 1.06
relative viability (NCI-H1755; first compound 1 µM): 0.927
relative viability (EBC-1; first compound 0.01 µM): 0.831
relative viability (EBC-1; first compound 0.03162 µM): 0.887
relative viability (EBC-1; first compound 0.1 µM): 0.965
relative viability (EBC-1; first compound 0.3162 µM): 0.918
relative viability (EBC-1; first compound 1 µM): 0.664
relative viability (NCI-H1703; first compound 0.01 µM): 0.262
relative viability (NCI-H1703; first compound 0.1 µM): 0.397
relative viability (NCI-H1703; first compound 0.3162 µM): 0.45
relative viability (NCI-H1703; first compound 1 µM): 0.292
relative viability (Calu-6; first compound 0.01 µM): 1
relative viability (Calu-6; first compound 0.03162 µM): 0.996
relative viability (Calu-6; first compound 0.1 µM): 0.868
relative viability (Calu-6; first compound 0.3162 µM): 1.09
relative viability (Calu-6; first compound 1 µM): 1.01
relative viability (LCLC-103H; first compound 0.01 µM): 1.09
relative viability (LCLC-103H; first compound 0.03162 µM): 0.967
relative viability (LCLC-103H; first compound 0.1 µM): 0.975
relative viability (LCLC-103H; first compound 0.3162 µM): 1.01
relative viability (LCLC-103H; first compound 1 µM): 1.01
relative viability (A549; first compound 0.01 µM): 0.726
relative viability (A549; first compound 0.03162 µM): 0.801
relative viability (A549; first compound 0.1 µM): 0.985
relative viability (A549; first compound 0.3162 µM): 0.828
relative viability (A549; first compound 1 µM): 0.57
relative viability (HCC-15; first compound 0.01 µM): 1.03
relative viability (HCC-15; first compound 0.03162 µM): 0.885
relative viability (HCC-15; first compound 0.1 µM): 0.947
relative viability (HCC-15; first compound 0.3162 µM): 0.966
relative viability (HCC-15; first compound 1 µM): 0.868

O=c1cc(-c2cccc3c2Sc2ccccc2S3)oc(N2CCOCC2)c1 + Cc1nc(NC(=O)N2CCC[C@H]2C(N)=O)sc1-c1ccnc(C(C)(C)C(F)(F)F)c1 [Alpelisib] (partner 2 µM)
relative viability (NCI-H1299; first compound 0.08 µM): 1.03
relative viability (NCI-H1299; first compound 0.253 µM): 1.09
relative viability (NCI-H1299; first compound 0.8 µM): 1.13
relative viability (NCI-H1299; first compound 2.53 µM): 1.03
relative viability (NCI-H1299; first compound 8 µM): 1.08
relative viability (UMC-11; first compound 0.08 µM): 0.965
relative viability (UMC-11; first compound 0.253 µM): 1.35
relative viability (UMC-11; first compound 0.8 µM): 1.17
relative viability (UMC-11; first compound 2.53 µM): 0.98
relative viability (UMC-11; first compound 8 µM): 1.42
relative viability (NCI-H1395; first compound 0.08 µM): 1.13
relative viability (NCI-H1395; first compound 0.253 µM): 1.13
relative viability (NCI-H1395; first compound 0.8 µM): 1.19
relative viability (NCI-H1395; first compound 2.53 µM): 0.907
relative viability (NCI-H1395; first compound 8 µM): 1.05
relative viability (HCC-44; first compound 0.08 µM): 0.811
relative viability (HCC-44; first compound 0.253 µM): 0.904
relative viability (HCC-44; first compound 0.8 µM): 0.689
relative viability (HCC-44; first compound 2.53 µM): 0.685
relative viability (HCC-44; first compound 8 µM): 0.753
relative viability (IA-LM; first compound 0.08 µM): 0.664
relative viability (IA-LM; first compound 0.253 µM): 1.06
relative viability (IA-LM; first compound 0.8 µM): 0.852
relative viability (IA-LM; first compound 2.53 µM): 0.862
relative viability (IA-LM; first compound 8 µM): 0.677
relative viability (EKVX; first compound 0.08 µM): 1.05
relative viability (EKVX; first compound 0.253 µM): 0.963
relative viability (EKVX; first compound 0.8 µM): 0.805
relative viability (EKVX; first compound 2.53 µM): 1
relative viability (EKVX; first compound 8 µM): 0.755
relative viability (NCI-H1755; first compound 0.08 µM): 0.889
relative viability (NCI-H1755; first compound 0.253 µM): 1.22
relative viability (NCI-H1755; first compound 0.8 µM): 0.945
relative viability (NCI-H1755; first compound 2.53 µM): 0.925
relative viability (NCI-H1755; first compound 8 µM): 0.964
relative viability (EBC-1; first compound 0.08 µM): 0.792
relative viability (EBC-1; first compound 0.253 µM): 1.03
relative viability (EBC-1; first compound 0.8 µM): 0.816
relative viability (EBC-1; first compound 2.53 µM): 0.755
relative viability (EBC-1; first compound 8 µM): 0.522
relative viability (NCI-H1703; first compound 0.253 µM): 0.459
relative viability (NCI-H1703; first compound 0.8 µM): 0.296
relative viability (NCI-H1703; first compound 2.53 µM): 0.245
relative viability (NCI-H1703; first compound 8 µM): 0.295
relative viability (Calu-6; first compound 0.08 µM): 0.841
relative viability (Calu-6; first compound 0.253 µM): 1.12
relative viability (Calu-6; first compound 0.8 µM): 1
relative viability (Calu-6; first compound 2.53 µM): 0.923
relative viability (Calu-6; first compound 8 µM): 1.06
relative viability (LCLC-103H; first compound 0.08 µM): 0.994
relative viability (LCLC-103H; first compound 0.253 µM): 1.06
relative viability (LCLC-103H; first compound 0.8 µM): 0.837
relative viability (LCLC-103H; first compound 2.53 µM): 0.971
relative viability (LCLC-103H; first compound 8 µM): 0.963
relative viability (A549; first compound 0.08 µM): 0.738
relative viability (A549; first compound 0.253 µM): 0.958
relative viability (A549; first compound 0.8 µM): 0.857
relative viability (A549; first compound 2.53 µM): 0.659
relative viability (A549; first compound 8 µM): 0.653
relative viability (HCC-15; first compound 0.08 µM): 0.896
relative viability (HCC-15; first compound 0.253 µM): 1.05
relative viability (HCC-15; first compound 0.8 µM): 0.89
relative viability (HCC-15; first compound 2.53 µM): 0.797
relative viability (HCC-15; first compound 8 µM): 0.922
